“Also recorded” adds a separate entry of the source. Where two headings read alike, the source gives them in different places.
Biological target: neuraminidase from Clostridium perfringens (Clostridium perfringens, UniProt A0A0H2YQR1)
Type: biochemical
Conditions: for Type of Inhibition: Lineweaver-Burk plot

neuraminidase from Clostridium perfringens, sequence (A0A0H2YQR1 42-694 limits assumed): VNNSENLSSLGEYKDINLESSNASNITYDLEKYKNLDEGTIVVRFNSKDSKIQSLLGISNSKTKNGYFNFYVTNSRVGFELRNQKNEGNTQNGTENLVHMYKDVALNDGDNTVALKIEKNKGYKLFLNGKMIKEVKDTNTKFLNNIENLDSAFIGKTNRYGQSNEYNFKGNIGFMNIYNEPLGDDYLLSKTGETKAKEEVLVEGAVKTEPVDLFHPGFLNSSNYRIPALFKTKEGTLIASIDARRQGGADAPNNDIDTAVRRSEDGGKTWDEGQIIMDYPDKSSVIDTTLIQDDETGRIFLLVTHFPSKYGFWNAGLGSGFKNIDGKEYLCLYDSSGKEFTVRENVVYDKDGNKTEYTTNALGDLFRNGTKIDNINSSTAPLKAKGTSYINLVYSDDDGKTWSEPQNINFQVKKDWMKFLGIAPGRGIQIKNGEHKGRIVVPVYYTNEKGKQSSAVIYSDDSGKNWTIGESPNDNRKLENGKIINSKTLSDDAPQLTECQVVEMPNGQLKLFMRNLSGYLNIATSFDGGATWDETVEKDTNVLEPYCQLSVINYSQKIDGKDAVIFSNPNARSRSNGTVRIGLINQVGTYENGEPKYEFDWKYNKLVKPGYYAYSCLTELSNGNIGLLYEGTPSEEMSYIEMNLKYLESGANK

| Structure (SMILES) | Type of Inhibition | Type of Inhibition (listed as Bakkenolide D (2)) | Type of Inhibition (listed as 5-O-Caffeoylquinic acid (4, 5-COQ)) | Type of Inhibition (listed as 1,5-di-O-caffeoylquinic acid (3, 1,5-COQ)) | reversibility of inhibition (remaining enzyme activity versus enzyme concentration at different inhibitor concentrations (Figure 2b)) |
| --- | --- | --- | --- | --- | --- |
| C=C1COC(=O)[C@]12C[C@@]1(C)C([C@@H](OC(=O)/C=C\SC)CC[C@@H]1C)[C@H]2OC(C)=O (stereo partly shown) [compound 2, Bakkenolide D] | non-competitive inhibition | non-competitive inhibitor; also recorded: Noncompetitive | – | – | – |
| O=C(/C=C/c1ccc(O)c(O)c1)O[C@@H]1C[C@](O)(C(=O)O)C[C@@H](O)[C@H]1O [compound 4, 5-O-Caffeoylquinic Acid] | competitive inhibitor | – | Competitive | – | – |
| O=C(/C=C/c1ccc(O)c(O)c1)O[C@@H]1C[C@](OC(=O)/C=C/c2ccc(O)c(O)c2)(C(=O)O)C[C@@H](O)[C@H]1O [compound 3, 1,5-di-O-Caffeoylquinic Acid] | competitive inhibitor | – | – | Competitive | reversible inhibitor |
